Results taken from patent US20250228837A1, “(2S)-1-[4-(3,4-DICHLOROPHENYL)PIPERIDIN-1-YL]-3-[2-(5-METHYL-1,3,4-OXADIAZOL-2-YL)BENZO[B]FURAN-4-YLOXY] PROPAN-2-OL OR ITS METABOLITE FOR TREATING ANXIETY DISORDERS” (Minerva Neurosciences, Inc., priority 2016, published 2025).
“Also recorded” adds a separate entry of the source. Counter-ions that a name gives are not always drawn. Like-named read-outs stand apart in the source and are kept apart here.

Tests used:
adult subjects with MDD = test: Phase 2a randomized, double-blind, placebo- and active-controlled study; anxiety by HAM-A over 6 weeks; assay type: in vivo, human; details: for speed of onset of the reduction in total HAM-A score: 0.5 mg dose compared with the 2.5 mg dose and other arms, Week 1 vs. Week 2; for reduction in severity of anxiety symptoms compared to placebo (change from baseline in total HAM-A score): MDD patients, ITT, once daily oral 0.5 mg or 2.5 mg, 6 weeks of treatment
Protocol: In an embodiment, the effect of the treatment is measured using the Hamilton Anxiety Scale (HAM-A). The subject is asked to rate the gravity of each item using a 5-level scale—from 0 to 4, where 0 being not present and 4 being severe. The results are then collated and tabulated to determine the severity of anxiety: a HAM-A score of <17 is mild anxiety, HAM-A score of 18-24 is mild to moderate anxiety, and HAM-A score of 25-30 is moderate to severe anxiety.
A phase 2a, multicenter, multinational, randomized, double-blind, placebo- and active-controlled parallel-group study was conducted to investigate the efficacy and safety of MIN-117 in adult subjects with MDD. One of the exploratory objectives of the study was to assess effects of MIN-117 compared to placebo on anxiety as measured by change from baseline in the Hamilton Anxiety Rating Scale (HAM-A) over 6 weeks of treatment.
The study consisted of a 4-week pre-treatment phase during which subjects were washed out from antidepressant medications or other psychotropics, followed by a 6-week treatment phase, and then an end of study (EOS) follow-up visit at approximately 2-weeks after the end of the treatment phase. MIN-117 capsules of 0.5 mg and 2.5 mg strength were used in the study. The capsules were size 4 made of white hard gelatin containing the drug substance, lactose, cornstarch, low substituted hydroxypropylcelullose and hydroxypropylcelullose, and purified water.
Eighty-four eligible subjects (met the DSM-5 diagnostic criteria for moderate to severe MDD, without psychotic features) were randomized in a 1:1:1:1 ratio, to receive once daily oral doses of placebo, MIN-117 at 0.5 mg, MIN-117 at 2.5 mg, or paroxetine at 20 mg as an active comparator for 6 weeks. Paroxetine is an antidepressant of the SSRI class and is used to treat MDD, OCD, PTSD, social anxiety disorder, panic disorder, GAD, premenstrual dysphoric disorder and menopausal hot flashes. The HAM-A scale was used to measure the severity of each subject's anxiety at screening, baseline, and weeks 1, 2, 4, 6 (or early withdrawal) and EOS.
Subjects had to meet all of the following inclusion criteria to be eligible for participation in this study: • 1. Subjects must be able to read and understand the consent forms, complete study-related procedures, and communicate with the study staff. • 2. Subjects must have provided written consent to participate in the study and understand that they are free to withdraw from the study at any time. • 3. Male or female subjects must be 18 to 65 years of age, inclusive, at Screening (Visit 1). • 4. Subjects have a body mass index (BMI) of ≥18 to ≤35 kg/m^2 [BMI=weight (kg)/height (m^2)] at Screening (Visit 1) • 5. Subjects must meet Diagnostic and Statistical Manual of Mental Disorders—Fifth Edition (DSM-5) criteria for diagnosis of moderate or severe depression without psychotic features (ICD-9 codes 296.32 & 296.33; ICD-10 codes F33.1 & F33.2, respectively) at Screening based on clinical assessment and on the MINI, v7.0. • 6. Subjects have a history of at least one previous episode of depression prior to the current episode. • 7. Current major depressive episode of at least 8 weeks in duration. • 8. Subjects must have a score of ≥30 on the investigator-rated MADRS at Screening (Visit 1) and Baseline (Visit 2a). • 9. Subjects must have a score of ≥4 on the investigator-rated CGI-S at Screening (Visit 1) and Baseline (Visit 2a). • 10. Subjects must be in good general health prior to study participation with no clinically relevant abnormalities as assessed by the investigator and determined by medical history, physical examination, blood chemistry, hematology, urinalysis, and electrocardiogram (ECG). • 11. […] Male subjects who are willing to use condom for the duration of the study and until 90 days after the last dose of the study, even if they have had vasectomy, and must inform their partners about taking an investigational medication. […]

5-HT1A receptor [1] = biological target: T1, 5-HT1A receptor (Homo sapiens, UniProt P08908); details: from U.S. Pat. No. 6,720,320 / Minerva Form 10K, cited from earlier work
T1 sequence (P08908 1-422): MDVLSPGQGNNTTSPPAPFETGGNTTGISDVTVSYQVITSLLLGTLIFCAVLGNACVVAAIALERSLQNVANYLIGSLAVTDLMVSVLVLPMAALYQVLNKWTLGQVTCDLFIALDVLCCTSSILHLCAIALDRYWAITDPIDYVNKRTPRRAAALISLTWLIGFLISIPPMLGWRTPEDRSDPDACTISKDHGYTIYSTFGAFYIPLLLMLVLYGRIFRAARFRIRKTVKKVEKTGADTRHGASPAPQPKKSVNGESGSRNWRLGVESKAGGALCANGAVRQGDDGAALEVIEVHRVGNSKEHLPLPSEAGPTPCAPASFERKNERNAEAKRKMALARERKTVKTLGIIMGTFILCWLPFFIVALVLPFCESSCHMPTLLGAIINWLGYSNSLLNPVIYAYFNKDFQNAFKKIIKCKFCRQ

5-HT2A receptors = 5-HT2A receptors (Homo sapiens, UniProt P28223); details: Minerva Form 10K, 14 Mar. 2016; cited from earlier work
Sequence of 5-HT2A receptors (P28223 whole entry): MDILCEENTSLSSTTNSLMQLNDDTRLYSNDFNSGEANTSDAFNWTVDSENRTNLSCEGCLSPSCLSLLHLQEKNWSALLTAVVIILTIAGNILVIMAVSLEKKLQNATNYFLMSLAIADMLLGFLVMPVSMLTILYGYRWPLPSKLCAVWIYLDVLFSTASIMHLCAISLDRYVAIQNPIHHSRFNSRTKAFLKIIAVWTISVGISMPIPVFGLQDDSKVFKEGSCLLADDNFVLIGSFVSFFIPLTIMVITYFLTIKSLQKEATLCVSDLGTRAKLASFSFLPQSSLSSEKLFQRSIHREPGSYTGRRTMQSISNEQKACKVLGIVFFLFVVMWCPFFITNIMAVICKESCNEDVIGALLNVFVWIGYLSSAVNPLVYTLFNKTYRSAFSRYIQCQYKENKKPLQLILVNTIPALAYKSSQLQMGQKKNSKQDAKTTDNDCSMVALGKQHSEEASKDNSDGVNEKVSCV

serotonin reuptake = serotonin reuptake (Homo sapiens, UniProt P31645); details: from U.S. Pat. No. 6,720,320 / Minerva Form 10K, cited from earlier work
Sequence of serotonin reuptake (P31645 whole entry): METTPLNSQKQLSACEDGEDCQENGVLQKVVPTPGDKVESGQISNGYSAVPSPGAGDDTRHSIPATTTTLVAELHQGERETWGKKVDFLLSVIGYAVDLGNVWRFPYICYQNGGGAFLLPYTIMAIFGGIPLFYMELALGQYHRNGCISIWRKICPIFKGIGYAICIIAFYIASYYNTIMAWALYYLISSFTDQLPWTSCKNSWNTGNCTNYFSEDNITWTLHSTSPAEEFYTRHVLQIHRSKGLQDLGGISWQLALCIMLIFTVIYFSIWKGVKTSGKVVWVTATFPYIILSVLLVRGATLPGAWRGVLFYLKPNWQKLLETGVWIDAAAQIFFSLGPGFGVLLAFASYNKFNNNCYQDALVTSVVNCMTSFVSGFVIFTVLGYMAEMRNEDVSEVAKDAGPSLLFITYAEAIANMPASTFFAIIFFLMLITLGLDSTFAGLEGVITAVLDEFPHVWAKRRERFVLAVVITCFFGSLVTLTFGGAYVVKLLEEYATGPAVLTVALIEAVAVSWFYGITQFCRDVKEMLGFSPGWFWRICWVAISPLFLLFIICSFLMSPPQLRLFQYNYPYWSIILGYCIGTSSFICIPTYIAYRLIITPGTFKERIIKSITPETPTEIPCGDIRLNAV

dopamine reuptake = dopamine reuptake (Homo sapiens, UniProt Q01959); details: Minerva Form 10K, 14 Mar. 2016; cited from earlier work
Sequence of dopamine reuptake (Q01959 whole entry): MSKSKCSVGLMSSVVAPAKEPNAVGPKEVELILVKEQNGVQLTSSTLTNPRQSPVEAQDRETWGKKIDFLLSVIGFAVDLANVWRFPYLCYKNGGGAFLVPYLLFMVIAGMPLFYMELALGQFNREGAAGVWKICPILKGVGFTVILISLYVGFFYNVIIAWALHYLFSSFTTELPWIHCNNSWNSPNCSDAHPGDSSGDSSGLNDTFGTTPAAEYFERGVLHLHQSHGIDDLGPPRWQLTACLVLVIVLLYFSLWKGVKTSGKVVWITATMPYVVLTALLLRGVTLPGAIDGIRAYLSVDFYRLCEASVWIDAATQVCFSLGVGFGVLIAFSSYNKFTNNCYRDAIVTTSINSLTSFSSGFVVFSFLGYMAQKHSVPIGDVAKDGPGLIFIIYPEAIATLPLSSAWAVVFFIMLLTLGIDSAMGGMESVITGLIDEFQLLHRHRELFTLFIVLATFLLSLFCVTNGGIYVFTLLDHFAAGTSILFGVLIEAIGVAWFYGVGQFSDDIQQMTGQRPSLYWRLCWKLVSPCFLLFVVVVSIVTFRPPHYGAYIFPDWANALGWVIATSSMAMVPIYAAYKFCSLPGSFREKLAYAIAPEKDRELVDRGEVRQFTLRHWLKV

α1A-adrenergic receptor = biological target: T2, α1A-adrenergic receptor (Homo sapiens, UniProt P35348); details: Minerva Form 10K, 14 Mar. 2016; cited from earlier work
T2 sequence (P35348 1-466): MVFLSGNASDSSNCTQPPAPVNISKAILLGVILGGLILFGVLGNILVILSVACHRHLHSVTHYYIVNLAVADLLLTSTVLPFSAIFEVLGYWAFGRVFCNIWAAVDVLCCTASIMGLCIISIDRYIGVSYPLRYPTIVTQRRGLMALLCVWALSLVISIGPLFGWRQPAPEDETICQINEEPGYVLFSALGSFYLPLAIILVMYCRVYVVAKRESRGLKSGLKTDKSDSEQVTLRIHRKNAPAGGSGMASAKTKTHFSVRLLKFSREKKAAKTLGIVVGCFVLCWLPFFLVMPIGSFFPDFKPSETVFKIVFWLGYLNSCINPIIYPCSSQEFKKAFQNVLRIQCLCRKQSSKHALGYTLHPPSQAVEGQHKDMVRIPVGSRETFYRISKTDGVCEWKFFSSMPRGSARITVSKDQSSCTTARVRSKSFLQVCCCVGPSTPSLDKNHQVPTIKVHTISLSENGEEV

α1B-adrenergic receptor = biological target: T3, α1B-adrenergic receptor (Homo sapiens, UniProt P35368); details: Minerva Form 10K, 14 Mar. 2016; cited from earlier work
T3 sequence (P35368 1-520): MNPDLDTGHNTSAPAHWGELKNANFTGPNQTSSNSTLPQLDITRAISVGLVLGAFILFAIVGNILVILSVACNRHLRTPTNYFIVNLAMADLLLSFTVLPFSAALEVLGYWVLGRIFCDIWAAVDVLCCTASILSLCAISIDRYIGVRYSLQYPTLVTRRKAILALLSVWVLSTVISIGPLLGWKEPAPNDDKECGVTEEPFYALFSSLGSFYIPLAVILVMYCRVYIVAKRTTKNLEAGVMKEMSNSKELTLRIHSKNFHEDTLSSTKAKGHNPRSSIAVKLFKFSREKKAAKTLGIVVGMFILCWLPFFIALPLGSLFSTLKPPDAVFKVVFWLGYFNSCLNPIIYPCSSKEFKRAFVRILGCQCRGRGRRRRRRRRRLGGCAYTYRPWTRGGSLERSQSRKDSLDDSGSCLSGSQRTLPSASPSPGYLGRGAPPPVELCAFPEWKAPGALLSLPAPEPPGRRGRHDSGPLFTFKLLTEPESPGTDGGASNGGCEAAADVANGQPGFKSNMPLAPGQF

5-HT1A receptor [2] = biological target: T1, 5-HT1A receptor; details: in vitro; disclosed in U.S. Pat. No. 6,720,320; cited from earlier work

Compound	speed of onset of the reduction in total HAM-A score (adult subjects with MDD; monohydrochloride)	time after starting therapy to a beneficial result over placebo (adult subjects with MDD; 0.5 mg total daily dose) [weeks]	reduction in severity of anxiety symptoms compared to placebo (change from baseline in total HAM-A score) (adult subjects with MDD; monohydrochloride)	tolerability (adult subjects with MDD; both doses (0.5 mg and 2.5 mg once daily, 6 weeks))	ability of both doses to reduce severity of symptoms, 0.5 mg vs 2.5 mg (adult subjects with MDD; by Week 6)	activity at the 5-HT1A receptor (5-HT1A receptor [1]; monohydrochloride)	activity at the 5-HT2A receptor (5-HT2A receptors)	activity on serotonin (5-HT) reuptake (serotonin reuptake; monohydrochloride)	activity on dopamine reuptake (dopamine reuptake)	affinity for the α1A-adrenergic receptor (α1A-adrenergic receptor)	affinity for the α1B-adrenergic receptor (α1B-adrenergic receptor)	speed of onset of the reduction in total HAM-A score (adult subjects with MDD)	reduction in severity of anxiety symptoms compared to placebo (change from baseline in total HAM-A score) (adult subjects with MDD)	affinity for the 5-HT1A receptor (5-HT1A receptor [2])	activity at the 5-HT1A receptor (5-HT1A receptor [1])	activity on serotonin (5-HT) reuptake (serotonin reuptake)
Cc1nnc(-c2cc3c(OC[C@@H](O)CN4CCC(c5ccc(Cl)c(Cl)c5)CC4)cccc3o2)o1 [MIN-117, (2S)-1-[4-(3,4-dichlorophenyl)piperidin-1-yl]-3-[2-(5-methyl-1,3,4-oxadiazol-2-yl)benzo[b]furan-4-yloxy]propan-2-ol monohydrochloride]	fastest onset	2	reduces anxiety symptoms; also recorded: capable of reducing the severity of one or more anxiety symptoms	well tolerated	comparable	antagonist	antagonist	antagonist	antagonist	having affinity	having affinity					
Cc1nnc(-c2cc3c(OC[C@@H](O)CN4CCC(c5ccc(Cl)c(Cl)c5)CC4)cccc3o2)o1 [Compound I, (2S)-1-[4-(3,4-dichlorophenyl)piperidin-1-yl]-3-[2-(5-methyl-1,3,4-oxadiazol-2-yl)benzo[b]furan-4-yloxy]propan-2-ol]												more rapid reduction	reduced anxiety symptoms compared to placebo; also recorded: capable of reducing the severity of one or more anxiety symptoms	selective affinity	antagonistic activity	5-HT reuptake inhibitory activity
OCc1nnc(-c2cc3c(OC[C@@H](O)CN4CCC(c5ccc(Cl)c(Cl)c5)CC4)cccc3o2)o1 [Compound II, (2S)-1-[4-(3,4-dichlorophenyl)piperidin-1-yl]-3-[2-(5-hydroxymethyl-1,3,4-oxadiazol-2-yl)benzo[b]furan-4-yloxy]propan-2-ol]														selective affinity	antagonistic activity	5-HT reuptake inhibitory activity
